Assay [1] addresses T1, SARS-CoV-2 PLpro (nsp3 1564–1878) (Severe acute respiratory syndrome coronavirus 2, UniProt P0DTD1). As to the kind of experiment: biochemical. The arrangement: FRET-quenched peptide (Pro3) cleavage by PLpro, 10 min pre-incubation, slope over 20 min, normalised to no-compound control. The note with it: high concentration screen, read-out: % of control remaining.
Assay [2] concerns the target T1, SARS-CoV-2 PLpro (nsp3 1564–1878). In words: biochemical. The note with it: low concentration screen, read-out: % of control remaining. The arrangement: FRET-quenched peptide (Pro3) cleavage by PLpro, 10 min pre-incubation, slope over 20 min, normalised to no-compound control.

In publication PMC8286840, “Identifying SARS-CoV-2 antiviral compounds by screening for small molecule inhibitors of Nsp3 papain-like protease” (Biochemical Journal, 2021) one finds remaining activity data, which are given here for 29 compounds.

Where a name gives a salt, the structure may show the parent alone. Read-outs that look alike come from different tables or passages of the source.

In the case of `CC(C(=O)O)c1ccccc1` (stereo not shown) [2-Phenylpropionic acid], the remaining activity at 3.75 µM in assay [1] (Well no.=6837) worked out at 95.3%. In addition, in assay [2] (Well no.=6837), the remaining activity at 1.25 µM was 94.4%.

With `O=c1cc[nH]c(=S)[nH]1` [2-Thiouracil], the remaining activity at 3.75 µM in assay [1] (Well no.=5325) was 90.8%. Further, the remaining activity at 1.25 µM in assay [2] (Well no.=5325) was found to be 90.5%.

Regarding `CN(C)c1ccccc1CN1CCCN(Cc2ccccc2N(C)C)C1c1ccncc1` [2-[(3-[2-(dimethylamino)benzyl]-2-(4-pyridinyl)tetrahydro-1(2H)-pyrimidinyl)methyl]-N,N-dimethylaniline], the remaining activity at 3.75 µM in assay [1] (Well no.=5454) was 100%. The remaining activity at 1.25 µM in assay [2] (Well no.=5454) was found to be 96.1%.

`Cc1nc(C(=O)N2CCC[C@H]2Cc2nnc(-c3ccccc3)o2)c(-c2ccccc2F)s1` [2-[((2S)-1-{[5-(2-fluorophenyl)-2-methyl-1,3-thiazol-4-yl]carbonyl}-2-pyrrolidinyl)methyl]-5-phenyl-1,3,4-oxadiazole]: the remaining activity at 3.75 µM in assay [1] (Well no.=5406) was 102%. Moreover, the remaining activity at 1.25 µM in assay [2] (Well no.=5406) came out at 90.5%.

For `CCCCCCCCc1ccc(CCC(N)(CO)CO)cc1` [2-amino-2-[2-(4-octylphenyl)ethyl]-1,3-propanediol hydrochloride], the remaining activity at 3.75 µM in assay [1] (Well no.=6045) came to 95.1%. Further, in assay [2] (Well no.=6045), the remaining activity at 1.25 µM is 93.4%.

In the case of `COc1cc(Br)c(S(=O)(=O)Nc2ccc(Cl)c(O[C@@H]3CCN(C)C3)c2)cc1OC` [2-bromo-N-(4-chloro-3-{[(3R)-1-methyl-3-pyrrolidinyl]oxy}phenyl)-4,5-dimethoxybenzenesulfonamide], in assay [1] (Well no.=5501), the remaining activity at 3.75 µM was found to be 105%. Further, the remaining activity at 1.25 µM in assay [2] (Well no.=5501) came out at 99.8%.

Regarding `CCCCCCCCCCCCCCC(Br)C(=O)O` (stereo not shown) [2-bromohexadecanoic acid], the remaining activity at 3.75 µM in assay [1] (Well no.=5893) was 106%. The remaining activity at 1.25 µM in assay [2] (Well no.=5893) came out at 106%.

On to `CCCCC1=NC2(CCCC2)C(=O)N1Cc1ccc(-c2ccccc2-c2nnn[nH]2)cc1` [2-butyl-3-{[2'-(1H-tetraazol-5-yl)[1,1'-biphenyl]-4-yl]methyl}-1,3-diazaspiro[4.4]non-1-en-4-one], for which the remaining activity at 3.75 µM in assay [1] (Well no.=5468) amounted to 104%. Further, the remaining activity at 1.25 µM in assay [2] (Well no.=5468) worked out at 98%.

For the compound `O=C(O)c1ccc(-c2c[nH]c3ncc(-c4ccccc4)cc23)cc1C1CCCC1` [2-cyclopentyl-4-(5-phenyl-1H-pyrrolo[2,3-b]pyridin-3-yl)benzoic acid], the remaining activity at 3.75 µM in assay [1] (Well no.=5864) is 94.4%. Further, in assay [2] (Well no.=5864), the remaining activity at 1.25 µM was determined as 93%.

`C[N+](C)(C)CCO` [2-hydroxy-N,N,N-trimethylethanaminium chloride]: the remaining activity at 3.75 µM in assay [1] (Well no.=5483) amounted to 97.8%. Also, the remaining activity at 1.25 µM in assay [2] (Well no.=5483) worked out at 98.3%.

As to `CC(N)(COP(=O)(O)O)C(=O)O` (stereo not shown) [2-methyl-O-phosphonoserine], the remaining activity at 3.75 µM in assay [1] (Well no.=5427) came to 101%. Also, the remaining activity at 1.25 µM in assay [2] (Well no.=5427) is 96.2%.

Regarding `CCc1nn(CCCN2CCN(c3cccc(Cl)c3)CC2)c(=O)n1CCOc1ccccc1` [2-{3-[4-(3-chlorophenyl)-1-piperazinyl]propyl}-5-ethyl-4-(2-phenoxyethyl)-2,4-dihydro-3H-1,2,4-triazol-3-one hydrochloride], the remaining activity at 3.75 µM in assay [1] (Well no.=5691) came to 96.7%. In addition, in assay [2] (Well no.=5691), the remaining activity at 1.25 µM was found to be 99.4%.

With `OCCOc1ccc(/C(=C(/CCCl)c2ccccc2)c2ccccc2)cc1` [2-{4-[(1Z)-4-chloro-1,2-diphenyl-1-butenyl]phenoxy}ethanol], the remaining activity at 3.75 µM in assay [1] (Well no.=5956) stood at 93.6%. For the same compound, in assay [2] (Well no.=5956), the remaining activity at 1.25 µM is 92.3%.

As for `Cc1ccc(OCCSc2ncccn2)c(Br)c1` [2-{[2-(2-bromo-4-methylphenoxy)ethyl]sulfanyl}pyrimidine], the remaining activity at 3.75 µM in assay [1] (Well no.=6035) turned out to be 94.6%. The remaining activity at 1.25 µM in assay [2] (Well no.=6035) was determined as 95.4%.

For `CCCCCCCC/C=C\CCCCCCC(O)C(=O)O` (stereo not shown) [2OHOA], the remaining activity at 3.75 µM in assay [1] (Well no.=5534) was 96.7%. For the same compound, the remaining activity at 1.25 µM in assay [2] (Well no.=5534) is 97.8%.

For the compound `N/C(=N\C(=O)c1nc(Cl)c(N)nc1N)NCc1ccc(Cl)c(Cl)c1` [3',4'-Dichlorobenzamil], the remaining activity at 3.75 µM in assay [1] (Well no.=440) stood at 88.3%. The remaining activity at 1.25 µM in assay [2] (Well no.=440) is 99.5%.

For `[N-]=[N+]=N[C@H]1[C@@H](O)[C@H](n2cc(F)c(N)nc2=O)O[C@@H]1CO` [3'-Azido-3'-deoxy-5-fluorocytidine], the remaining activity at 3.75 µM in assay [1] (Well no.=7910) was 95%. Moreover, the remaining activity at 1.25 µM in assay [2] (Well no.=7910) came to 96.3%.

With `Cc1cn([C@@H]2O[C@H](CO)[C@@H](N=[N+]=[N-])[C@H]2O)c(=O)nc1N` [3'-Azido-3'-deoxy-5-methylcytidine], in assay [1] (Well no.=7804), the remaining activity at 3.75 µM is 97.5%. Also, the remaining activity at 1.25 µM in assay [2] (Well no.=7804) came out at 98.2%.

Consider `[N-]=[N+]=N[C@@H]1[C@H](O)[C@@H](n2ccc(=O)[nH]c2=O)O[C@H]1CO` [3'-Azido-3'-deoxy-beta-L-uridine], for which, in assay [1] (Well no.=7758), the remaining activity at 3.75 µM came to 102%. In addition, in assay [2] (Well no.=7758), the remaining activity at 1.25 µM worked out at 97.9%.

Turning to `O=c1oc(Cl)c(Cl)c2ccccc12` [3,4-Dichloroisocoumarin], the remaining activity at 3.75 µM in assay [1] (Well no.=582) was 103%. For the same compound, the remaining activity at 1.25 µM in assay [2] (Well no.=582) came out at 100%.

On to `O=C(O)Cc1ccc(O)c(O)c1` [3,4-Dihydroxybenzeneacetic acid], for which the remaining activity at 3.75 µM in assay [1] (Well no.=6355) amounted to 106%. Moreover, the remaining activity at 1.25 µM in assay [2] (Well no.=6355) amounted to 104%.

`O=C(O)Cc1ccc(O)c(O)c1` [3,4-Dihydroxyphenylacetic acid]: the remaining activity at 3.75 µM in assay [1] (Well no.=442) is 104%. The remaining activity at 1.25 µM in assay [2] (Well no.=442) came to 103%.

With `COc1ccc(CC(=O)O)cc1OC` [3,4-Dimethoxyphenylacetic acid], in assay [1] (Well no.=6639), the remaining activity at 3.75 µM turned out to be 104%. Besides, in assay [2] (Well no.=6639), the remaining activity at 1.25 µM was 103%.

With `O=C(O)c1cc(O)cc(O)c1` [3,5-Dihydroxybenzoic acid], in assay [1] (Well no.=6829), the remaining activity at 3.75 µM amounted to 117%. Also, in assay [2] (Well no.=6829), the remaining activity at 1.25 µM came out at 101%.

For the compound `C#CCn1c(=O)c2c(ncn2C)n(C)c1=O` [3,7-Dimethyl-I-propargylxanthine], the remaining activity at 3.75 µM in assay [1] (Well no.=498) was 97.4%. Also, the remaining activity at 1.25 µM in assay [2] (Well no.=498) came out at 99.2%.

Turning to `CC(C)=CCc1cc2c(cc1O)oc(=O)c1c3ccc(O)cc3oc21` [3,9-dihydroxy-2-(3-methyl-2-butenyl)-6H-[1]benzofuro[3,2-c]chromen-6-one], the remaining activity at 3.75 µM in assay [1] (Well no.=6091) worked out at 87.9%. For the same compound, the remaining activity at 1.25 µM in assay [2] (Well no.=6091) is 95.4%.

On to `CN(C)c1ccnc2sc3c(=O)n(N4CCCCCC4)cnc3c12` [3-(1-azepanyl)-9-(dimethylamino)pyrido[3',2':4,5]thieno[3,2-d]pyrimidin-4(3H)-one], for which, in assay [1] (Well no.=5949), the remaining activity at 3.75 µM was 93.5%. In addition, the remaining activity at 1.25 µM in assay [2] (Well no.=5949) worked out at 92.3%.

`Fc1ccc(C(OCCCc2cnc[nH]2)c2ccc(F)cc2)cc1` [3-(1H-Imidazol-4-yl)propyl di(p-fluorophenyl)methyl ether hydrochloride]: in assay [1] (Well no.=1019), the remaining activity at 3.75 µM is 95.3%. Moreover, in assay [2] (Well no.=1019), the remaining activity at 1.25 µM turned out to be 93.6%.

With `N#Cc1cccc(-c2c[nH]c3ncnc(N4CCOCC4)c23)c1` [3-(4-morpholino-7H-pyrrolo[2,3-d]pyrimidin-5-yl)benzonitrile], the remaining activity at 3.75 µM in assay [1] (Well no.=5684) is 99.8%. Also, the remaining activity at 1.25 µM in assay [2] (Well no.=5684) amounted to 97.4%.
